ChEMBL document CHEMBL5136961, “Deglycase-activity oriented screening to identify DJ-1 inhibitors” (RSC Med Chem, 2021)

Biological target: T1, Parkinson disease protein 7 (Homo sapiens, UniProt Q99497)
T1 sequence (Q99497 whole entry): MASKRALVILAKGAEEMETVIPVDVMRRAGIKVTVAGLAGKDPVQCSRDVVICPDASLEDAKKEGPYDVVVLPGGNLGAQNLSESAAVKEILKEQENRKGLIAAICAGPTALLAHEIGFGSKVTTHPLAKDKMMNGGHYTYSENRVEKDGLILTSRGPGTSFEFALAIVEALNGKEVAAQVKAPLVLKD
Assay: Inhibition of pET3a-His-tagged DJ1 (unknown origin) expressed in Escherichia coli BL21 assessed as decrease in esterase activity using DiFMUAc as substrate

IC50 [nM]	Compound
676	Cc1ccc(CN2C(=O)C(=O)c3cc(Br)cc(Br)c32)cc1
701	O=C1C(=O)N(CCc2ccccc2)c2ccccc21
267	COc1ccc(CN2C(=O)C(=O)c3cc(Br)cc(Br)c32)cc1
62.6	O=C1C(=O)N(CCc2ccccc2)c2c(Br)cc(Br)cc21
2930	COc1ccc2c(c1)C(=O)C(=O)N2CCc1ccccc1
118	O=C1C(=O)N(CCc2ccccc2)c2ccc(F)cc21
118	CCN1C(=O)C(=O)c2cc(F)ccc21
356	O=C1C(=O)N(CC2(c3ccccc3)CC2)c2ccc(F)cc21
15000	O=C1/C(=C/Cl)c2cc(F)ccc2N1CCc1ccccc1
85	O=C1C(Cl)c2cc(F)ccc2N1CCc1ccccc1 (stereo not drawn)
1700	O=C1N(CCc2ccccc2)c2ccc(F)cc2C1(Cl)Cl
851	CC(C)(C)CCN1C(=O)C(=O)c2cc(F)ccc21
700	O=C1C(F)c2cc(F)ccc2N1CCc1ccccc1 (stereo not drawn)
2350	O=C(O)Cc1ccc2c(c1)N(CCc1ccccc1)C(=O)C2=O
54.6	COc1cc(F)cc2c1N(CCc1ccccc1)C(=O)C2=O
180	O=C1C=C(CCc2ccccc2)c2ccccc2C1=O
9790	O=C(O)c1ccc2c(c1)C(=O)C(=O)N2CCc1ccccc1
510	C#CCOc1cc2ccccc2cc1C(=O)NC1=CC(=O)C2OC2C1O (stereo not drawn)
